Patent US8802597B2, “Herbicidal pyrimidines” (E I du Pont de Nemours and Company, priority 2003, dated 2014)

Legend:
Assay type in all cases: in vivo
[1] = test system: Surinam grass (Brachiaria decumbens); assay: Test B pre/postemergence
Description: (§1) Seeds selected from barnyardgrass (Echinochloa crus-galli), Surinam grass (Brachiaria decumbens), cocklebur (Xanthium strumarium), corn (Zea mays), crabgrass (Digitaria sanguinalis), giant foxtail (Setaria faberii), lambsquarters (Chenopodium album), morningglory (Ipomoea coccinea), pigweed (Amaranthus retroflexus), velvetleaf (Abutilon theophrasti), and wheat (Triticum aestivum) were planted and treated preemergence with test chemicals formulated in a non-phytotoxic solvent mixture which included a surfactant.
(§2) At the same time, plants selected from these crop and weed species and also blackgrass (Alopecurus myosuroides) and wild oat (Avena fatua) were treated with postemergence applications of test chemicals formulated in the same manner. Plants ranged in height from 2 to 18 cm (1- to 4-leaf stage) for postemergence treatments. Plant species in the flooded paddy test consisted of rice (Oryza sativa), umbrella sedge (Cyperus difformis), duck salad (Heteranthera limosa) and barnyardgrass (Echinochloa crus-galli) grown to the 2-leaf stage for testing. Treated plants and controls were maintained in a greenhouse for 13 to 15 days, after which time all species were compared to controls and visually evaluated. Plant response ratings, summarized in Table B, are based on a scale of 0 to 100 where 0 is no effect and 100 is complete control. A dash (-) response means no test result.

[2] = test system: barnyardgrass (Echinochloa crus-galli); assay: Test B pre/postemergence
Description: as §1, §2

[3] = test system: cocklebur (Xanthium strumarium); assay: Test B pre/postemergence; settings: for Plant response rating, Cocklebur: 250 g ai/ha
Description: as §1, §2

corn (Zea mays) = assay: Test B pre/postemergence
Description: as §1, §2

[4] = test system: crabgrass (Digitaria sanguinalis); assay: Test B pre/postemergence
Description: as §1, §2

[5] = test system: giant foxtail (Setaria faberii); assay: Test B pre/postemergence
Description: as §1, §2

[6] = test system: lambsquarters (Chenopodium album); assay: Test B pre/postemergence
Description: as §1, §2

[7] = test system: morningglory (Ipomoea coccinea); assay: Test B pre/postemergence
Description: as §1, §2

[8] = test system: pigweed (Amaranthus retroflexus); assay: Test B pre/postemergence
Description: as §1, §2

[9] = test system: velvetleaf (Abutilon theophrasti); assay: Test B pre/postemergence
Description: as §1, §2

[10] = test system: wheat (Triticum aestivum); assay: Test B pre/postemergence
Description: as §1, §2

[11] = test system: blackgrass (Alopecurus myosuroides); assay: Test B postemergence
Outline: (§3)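 Pre: compound (non-phytotoxic solvent + surfactant) applied to freshly planted seeds. Post: same formulation sprayed on 2–18 cm plants, 1- to 4-leaf. Readout: visual control rating 0–100 vs controls, 13–15 d, greenhouse.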

wild oat (Avena fatua) = assay: Test B postemergence
Outline: as §3

[12] = test system: barnyardgrass (Echinochloa crus-galli); assay: Test B flooded paddy test; settings: Flood
Description: as §2

[13] = test system: duck salad (Heteranthera limosa); assay: Test B flooded paddy test; settings: Flood, scale 0 to 100
Description: as §2

rice (Oryza sativa) = assay: Test B flooded paddy test; settings: Flood, scale 0 to 100
Description: as §2

[14] = test system: umbrella sedge (Cyperus difformis); assay: Test B flooded paddy test; settings: Flood, scale 0 to 100
Description: as §2

[15] = test system: barnyardgrass (Echinochloa crus-galli); assay: Test A pre/postemergence
Outline: (§4)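 Seeds in loam–sand blend received preemergence directed soil spray and, concurrently, postemergence application (plants 2–10 cm, 1–2-leaf stage) of compound in non-phytotoxic solvent with surfactant. After about ten days in greenhouse, injury rated visually versus untreated controls, 0 (no effect) to 100 (complete control).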

[16] = test system: crabgrass (Digitaria sanguinalis); assay: Test A pre/postemergence
Outline: as §4

[17] = test system: giant foxtail (Setaria faberi); assay: Test A pre/postemergence
Outline: as §4

[18] = test system: morningglory (Ipomoea spp.); assay: Test A pre/postemergence
Outline: as §4

[19] = test system: redroot pigweed (Amaranthus retroflexus); assay: Test A pre/postemergence
Outline: as §4

[20] = test system: velvetleaf (Abutilon theophrasti); assay: Test A pre/postemergence
Outline: as §4

[21] = Postemergence, 62 g ai/ha, scale 0 to 100 (0 no effect, 100 complete control)
[22] = Postemergence, 250 g ai/ha, scale 0 to 100
[23] = Preemergence, 62 g ai/ha, scale 0 to 100, 0 no effect, 100 complete control
[24] = Preemergence, 250 g ai/ha, scale 0 to 100 (0 no effect, 100 complete control)
[25] = 62 g ai/ha, scale 0 to 100 (0 no effect, 100 complete control)
[26] = Postemergence, 125 g ai/ha, 0 to 100 scale (0 no effect, 100 complete control)
[27] = Postemergence, 500 g ai/ha, 0 to 100 scale (0 no effect, 100 complete control)
[28] = Preemergence, 125 g ai/ha, 0 to 100 scale where 0 is no effect and 100 is complete control, approximately ten days
[29] = Preemergence, 500 g ai/ha, 0 to 100 scale where 0 is no effect and 100 is complete control, approximately ten days

CCOC(OCC)c1nc(C2CC2)nc(N)c1Br [Compound 45]
10: Plant response rating, Cocklebur ([3]; Postemergence, scale 0 to 100) | Lambsquarters plant response rating [6, 21]
0: Surinam Grass plant response rating [1, 21] | Plant response rating, Surinam Grass [1, 22] | Plant response rating, Surinam Grass [1, 23] | Plant response rating, Surinam Grass [1, 24] | Barnyardgrass plant response rating [2, 21] | Plant response rating, Barnyardgrass [2, 22] | Plant response rating, Barnyardgrass [2, 23] | Plant response rating, Barnyardgrass [2, 24] | Cocklebur plant response rating [3, 21] | Plant response rating, Cocklebur ([3]; Preemergence, scale 0 to 100 (0 no effect, 100 complete control)) | Corn plant response rating (corn (Zea mays); [21]) | Plant response rating, Corn (corn (Zea mays); [22]) | Plant response rating, Corn (corn (Zea mays); [23]) | Crabgrass plant response rating [4, 21] | Plant response rating, Crabgrass [4, 23] | Plant response rating, Crabgrass [4, 24] | Foxtail, Giant plant response rating [5, 21] | Plant response rating, Foxtail, Giant [5, 22] | Plant response rating, Foxtail, Giant [5, 23] | Plant response rating, Foxtail, Giant [5, 24] | Plant response rating, Lambsquarters [6, 23] | Plant response rating, Pigweed [8, 23] | Velvetleaf plant response rating [9, 21] | Plant response rating, Velvetleaf [9, 23] | Plant response rating, Velvetleaf [9, 24] | Wheat plant response rating [10, 21] | Plant response rating, Wheat [10, 22] | Plant response rating, Wheat [10, 23] | Plant response rating, Wheat [10, 24] | Blackgrass plant response rating [11, 25] | Plant response rating, Blackgrass ([11]; 250 g ai/ha, scale 0 to 100) | Oat, Wild plant response rating (wild oat (Avena fatua); [25]) | Plant response rating, Oat, Wild (wild oat (Avena fatua); 250 g ai/ha, scale 0 to 100) | Plant response rating, Barnyardgrass ([12]; 1000 g ai/ha, scale 0 (no effect) to 100 (complete control)) | Plant response rating, Ducksalad ([13]; 1000 g ai/ha) | Plant response rating, Rice (rice (Oryza sativa); 1000 g ai/ha) | Plant response rating, Sedge, Umbrella ([14]; 1000 g ai/ha)
30: Plant response rating, Lambsquarters [6, 22] | Plant response rating, Lambsquarters [6, 24] | Plant response rating, Morningglory [7, 23] | Pigweed plant response rating [8, 21]
20: Plant response rating, Crabgrass [4, 22] | Plant response rating, Velvetleaf [9, 22]
50: Plant response rating, Morningglory [7, 24] | Plant response rating, Pigweed [8, 22] | Plant response rating, Pigweed [8, 24]
60: Plant response rating, Morningglory [7, 22]
40: Morningglory plant response rating [7, 21]

CCOC(=O)c1nc(-c2ccc(C(F)(F)F)cc2)nc(N)c1Br [Compound 60]
90: Plant response rating, Ducksalad ([13]; 500 g ai/ha)
80: Plant response rating, Ducksalad ([13]; 125 g ai/ha)
10: Plant response rating, Pigweed [19, 26]
0: Plant response rating, Barnyardgrass [15, 26] | Plant response rating, Barnyardgrass [15, 27] | Plant response rating, Barnyardgrass [15, 28] | Plant response rating, Barnyardgrass [15, 29] | Plant response rating, Crabgrass [16, 26] | Plant response rating, Crabgrass [16, 27] | Plant response rating, Crabgrass [16, 28] | Plant response rating, Crabgrass [16, 29] | Plant response rating, Foxtail, Giant [17, 26] | Plant response rating, Foxtail, Giant [17, 27] | Plant response rating, Foxtail, Giant [17, 28] | Plant response rating, Foxtail, Giant [17, 29] | Plant response rating, Morningglory [18, 26] | Plant response rating, Morningglory [18, 28] | Plant response rating, Morningglory [18, 29] | Plant response rating, Pigweed [19, 28] | Plant response rating, Pigweed [19, 29] | Plant response rating, Velvetleaf [20, 28] | Plant response rating, Velvetleaf [20, 29] | Plant response rating, Barnyardgrass ([12]; 125 g ai/ha, scale 0 to 100) | Plant response rating, Rice (rice (Oryza sativa); 125 g ai/ha) | Plant response rating, Rice (rice (Oryza sativa); 500 g ai/ha) | Plant response rating, Sedge, Umbrella ([14]; 125 g ai/ha)
20: Plant response rating, Morningglory [18, 27] | Plant response rating, Barnyardgrass ([12]; 500 g ai/ha, scale 0 to 100)
40: Plant response rating, Pigweed [19, 27] | Plant response rating, Velvetleaf [20, 27]
30: Plant response rating, Velvetleaf [20, 26] | Plant response rating, Sedge, Umbrella ([14]; 500 g ai/ha)

Nc1nc(C2CC2)nc(C(=O)OCc2ccc(Cl)cc2)c1Cl [Compound 80]
65: Plant response rating, Pigweed [19, 26] | Plant response rating, Velvetleaf [20, 26]
20: Plant response rating, Sedge, Umbrella ([14]; 125 g ai/ha)
95: Plant response rating, Morningglory [18, 27] | Plant response rating, Pigweed [19, 27]
100: Plant response rating, Morningglory [18, 29]
50: Plant response rating, Barnyardgrass ([12]; 500 g ai/ha, scale 0 to 100) | Plant response rating, Ducksalad ([13]; 125 g ai/ha) | Plant response rating, Rice (rice (Oryza sativa); 500 g ai/ha)
80: Plant response rating, Barnyardgrass [15, 29] | Plant response rating, Pigweed [19, 28]
85: Plant response rating, Crabgrass [16, 29]
10: Plant response rating, Barnyardgrass [15, 28]
0: Plant response rating, Barnyardgrass ([12]; 125 g ai/ha, scale 0 to 100) | Plant response rating, Rice (rice (Oryza sativa); 125 g ai/ha)
70: Plant response rating, Crabgrass [16, 27] | Plant response rating, Foxtail, Giant [17, 26] | Plant response rating, Foxtail, Giant [17, 29] | Plant response rating, Ducksalad ([13]; 500 g ai/ha) | Plant response rating, Sedge, Umbrella ([14]; 500 g ai/ha)
75: Plant response rating, Velvetleaf [20, 28]
90: Plant response rating, Barnyardgrass [15, 27] | Plant response rating, Foxtail, Giant [17, 27] | Plant response rating, Morningglory [18, 26] | Plant response rating, Morningglory [18, 28] | Plant response rating, Pigweed [19, 29] | Plant response rating, Velvetleaf [20, 27] | Plant response rating, Velvetleaf [20, 29]
15: Plant response rating, Foxtail, Giant [17, 28]
30: Plant response rating, Crabgrass [16, 26]
45: Plant response rating, Crabgrass [16, 28]
55: Plant response rating, Barnyardgrass [15, 26]
